Results: ChEMBL document CHEMBL5608177, “Antitumor activity and transcriptome sequencing (RNA-seq) analyses of hepatocellular carcinoma cells in response to exposure triterpene-nucleoside conjugates” (Eur J Med Chem, 2024)
Activity calls are given as the source filed them. The rule behind the calls is not given here.

Tests used:
[1] = tested on: SMMC-7721; experiment: Induction of apoptosis in human SMMC-7721 cells assessed as viable cells at 15 uM incubated for 24 hrs in presence of 3-MA by Annexin V-FITC and propidium iodide staining based flow cytometric analysis (reference value: 99.2 %); type: functional; settings: read-out: Activity
[2] = tested on: SMMC-7721; experiment: Induction of apoptosis in human SMMC-7721 cells assessed as necrotic cells at 15 uM incubated for 24 hrs in presence of Nec1 by Annexin V-FITC and propidium iodide staining based flow cytometric analysis (reference value: 0.65 %); type: functional
[3] = tested on: SMMC-7721; experiment: Induction of apoptosis in human SMMC-7721 cells assessed as necrotic cells at 5 uM incubated for 24 hrs by Annexin V-FITC and propidium iodide staining based flow cytometric analysis (reference value: 0.61 %); type: functional
[4] = tested on: SMMC-7721; experiment: Induction of apoptosis in human SMMC-7721 cells assessed as viable cells at 15 uM incubated for 24 hrs in presence of Nec1 by Annexin V-FITC and propidium iodide staining based flow cytometric analysis (reference value: 99.2 %); type: functional; settings: read-out: Activity
[5] = tested on: SMMC-7721; experiment: Induction of apoptosis in human SMMC-7721 cells assessed as necrotic cells at 15 uM incubated for 24 hrs in presence of 3-MA by Annexin V-FITC and propidium iodide staining based flow cytometric analysis (reference value: 0.65 %); type: functional
[6] = tested on: SMMC-7721; experiment: Induction of apoptosis in human SMMC-7721 cells assessed as late apoptotic cells at 15 uM incubated for 24 hrs in presence of Nec1 by Annexin V-FITC and propidium iodide staining based flow cytometric analysis (reference value: 0.09 %); type: functional
[7] = tested on: SMMC-7721; experiment: Induction of apoptosis in human SMMC-7721 cells assessed as viable cells at 5 uM incubated for 24 hrs by Annexin V-FITC and propidium iodide staining based flow cytometric analysis (reference value: 99 %); type: functional; settings: read-out: Activity
[8] = tested on: SMMC-7721; experiment: Induction of autophagy in human SMMC-7721 cells assessed as cell structure destruction at 10 uM incubated for 24 hrs by TEM analysis; type: functional, cell-based
[9] = tested on: SMMC-7721; experiment: Induction of apoptosis in human SMMC-7721 cells assessed as late apoptotic cells at 15 uM incubated for 24 hrs in presence of zVAD by Annexin V-FITC and propidium iodide staining based flow cytometric analysis (reference value: 0.09 %); type: functional
[10] = tested on: MCF7; experiment: Antiproliferative activity against human MCF7 cells assessed as inhibition of cell growth incubated for 48 hrs by CCK-8 reagent based spectrophotometric analysis; type: functional; settings: MCF7, 48 h
[11] = tested on: SMMC-7721; experiment: Induction of apoptosis in human SMMC-7721 cells assessed as early apoptotic cells at 10 uM incubated for 24 hrs by Annexin V-FITC and propidium iodide staining based flow cytometric analysis (reference value: 0.28 %); type: functional
[12] = tested on: SMMC-7721; experiment: Induction of apoptosis in human SMMC-7721 cells assessed as late apoptotic cells at 15 uM incubated for 24 hrs in presence of 3-MA by Annexin V-FITC and propidium iodide staining based flow cytometric analysis (reference value: 0.09 %); type: functional
[13] = tested on: HepG2; experiment: Antiproliferative activity against human HepG2 cells assessed as inhibition of cell growth incubated for 48 hrs by CCK-8 reagent based spectrophotometric analysis; type: functional; settings: HepG2, 48 h
[14] = tested on: SMMC-7721; experiment: Induction of apoptosis in human SMMC-7721 cells assessed as necrotic cells at 20 uM incubated for 24 hrs by Annexin V-FITC and propidium iodide staining based flow cytometric analysis (reference value: 0.61 %); type: functional
[15] = tested on: SMMC-7721; experiment: Antiproliferative activity against human SMMC-7721 cells assessed as inhibition of cell growth incubated for 48 hrs by CCK-8 reagent based spectrophotometric analysis; type: functional; settings: SMMC-7721, 48 h
[16] = tested on: SMMC-7721; experiment: Induction of apoptosis in human SMMC-7721 cells at 10 uM incubated for 24 hrs by Annexin V-FITC and propidium iodide staining based flow cytometric analysis relative to control; type: functional
[17] = tested on: SMMC-7721; experiment: Induction of apoptosis in human SMMC-7721 cells assessed as early apoptotic cells at 15 uM incubated for 24 hrs in presence of Nec1 by Annexin V-FITC and propidium iodide staining based flow cytometric analysis (reference value: 0.07 %); type: functional
[18] = tested on: SMMC-7721; experiment: Induction of autophagy in human SMMC-7721 cells assessed as formation of autolysosomes at 10 uM incubated for 24 hrs by TEM analysis; type: functional, cell-based
[19] = tested on: SMMC-7721; experiment: Induction of autophagy in human SMMC-7721 cells assessed as appearance of sparse matrix at 10 uM incubated for 24 hrs by TEM analysis; type: functional, cell-based
[20] = tested on: SMMC-7721; experiment: Induction of apoptosis in human SMMC-7721 cells assessed as early apoptotic cells at 5 uM incubated for 24 hrs by Annexin V-FITC and propidium iodide staining based flow cytometric analysis (reference value: 0.28 %); type: functional
[21] = tested on: SMMC-7721; experiment: Induction of apoptosis in human SMMC-7721 cells at 20 uM incubated for 24 hrs by Annexin V-FITC and propidium iodide staining based flow cytometric analysis relative to control; type: functional
[22] = tested on: SMMC-7721; experiment: Induction of apoptosis in human SMMC-7721 cells assessed as late apoptotic cells at 5 uM incubated for 24 hrs by Annexin V-FITC and propidium iodide staining based flow cytometric analysis (reference value: 0.14 %); type: functional
[23] = tested on: SMMC-7721; experiment: Induction of apoptosis in human SMMC-7721 cells assessed as late apoptotic cells at 10 uM incubated for 24 hrs by Annexin V-FITC and propidium iodide staining based flow cytometric analysis (reference value: 0.14 %); type: functional
[24] = tested on: SMMC-7721; experiment: Induction of apoptosis in human SMMC-7721 cells assessed as early apoptotic cells at 15 uM incubated for 24 hrs in presence of 3-MA by Annexin V-FITC and propidium iodide staining based flow cytometric analysis (reference value: 0.07 %); type: functional
[25] = tested on: SMMC-7721; experiment: Induction of autophagy in human SMMC-7721 cells assessed as formation of autophagosome at 10 uM incubated for 24 hrs by TEM analysis; type: functional, cell-based
[26] = tested on: SMMC-7721; experiment: Induction of apoptosis in human SMMC-7721 cells assessed as necrotic cells at 15 uM incubated for 24 hrs in presence of zVAD by Annexin V-FITC and propidium iodide staining based flow cytometric analysis (reference value: 0.65 %); type: functional
[27] = tested on: SMMC-7721; experiment: Induction of apoptosis in human SMMC-7721 cells assessed as necrotic cells at 10 uM incubated for 24 hrs by Annexin V-FITC and propidium iodide staining based flow cytometric analysis (reference value: 0.61 %); type: functional
[28] = tested on: SMMC-7721; experiment: Induction of apoptosis in human SMMC-7721 cells assessed as viable cells at 20 uM incubated for 24 hrs by Annexin V-FITC and propidium iodide staining based flow cytometric analysis (reference value: 99 %); type: functional; settings: read-out: Activity
[29] = tested on: SW-620; experiment: Antiproliferative activity against human SW620 cells assessed as inhibition of cell growth incubated for 48 hrs by CCK-8 reagent based spectrophotometric analysis; type: functional; settings: SW-620, 48 h
[30] = tested on: SMMC-7721; experiment: Induction of apoptosis in human SMMC-7721 cells assessed as viable cells at 10 uM incubated for 24 hrs by Annexin V-FITC and propidium iodide staining based flow cytometric analysis (reference value: 99 %); type: functional; settings: read-out: Activity
[31] = tested on: SMMC-7721; experiment: Induction of apoptosis in human SMMC-7721 cells assessed as necrotic cells at 15 uM incubated for 24 hrs by Annexin V-FITC and propidium iodide staining based flow cytometric analysis (reference value: 0.65 %); type: functional

| SMILES | viability at 15 µM [1] | Activity [2] | Activity [3] | viability at 15 µM [4] | Activity [5] | Activity [6] | viability at 5 µM [7] | Activity [8] | Activity [9] | IC50 [10] | Activity [11] | Activity [12] | IC50 [13] | Activity [14] | IC50 [15] | Activity [16] | Activity [17] | Activity [18] | Activity [19] | Activity [20] | also measured |
| --- | --- | --- | --- | --- | --- | --- | --- | --- | --- | --- | --- | --- | --- | --- | --- | --- | --- | --- | --- | --- | --- |
| C=C(C)[C@@H]1CC[C@]2(C(=O)OC)CC[C@]3(C)[C@H](CC[C@@H]4[C@@]5(C)C[C@@H](Cc6cn([C@H]7C[C@H](n8cc(C)c(O)nc8=O)O[C@@H]7CO)nn6)C(=O)C(C)(C)[C@@H]5CC[C@]43C)[C@@H]12 | 91.6% | 5.17% | 0.56% | 83.6% | 1.77% | 10.8% | 98.4% | Active | 2.77% | 9.78 µM | 0.48% | 6.4% | 9.55 µM | 23% | 5.02 µM | 0.54% | 0.19% | Active | Active | 0.24% | Activity [21]: 0.54%; Activity [22]: 0.77%; Activity [23]: 6.31%; Activity [24]: 0.23%; Activity [25]: Active; Activity [26]: 9.33%; Activity [27]: 1.48%; viability at 20 µM [28]: 58%; IC50 [29]: 4.61 µM; viability at 10 µM [30]: 91.7%; Activity [31]: 16.6% |
| C=C(C)[C@@H]1CC[C@]2(C(=O)OC)CC[C@]3(C)[C@H](CC[C@@H]4[C@@]5(C)C[C@@H](Cc6cn([C@]7(CO)O[C@@H](n8ccc(O)nc8=O)[C@@H](F)[C@@H]7O)nn6)C(=O)C(C)(C)[C@@H]5CC[C@]43C)[C@@H]12 | 86.2% | 3.24% | 0.69% | 87.4% | 11.2% | 9.13% | 99% | Active | 8.65% | 18.6 µM | 0.35% | 2.54% | 23.7 µM | 19.8% | 7.73 µM | 0.42% | 0.23% | Active | Active | 0.13% | Activity [21]: 0.42%; Activity [22]: 0.16%; Activity [23]: 0.78%; Activity [24]: 0.05%; Activity [25]: Active; Activity [26]: 9.3%; Activity [27]: 2.69%; viability at 20 µM [28]: 62.3%; IC50 [29]: 10.9 µM; viability at 10 µM [30]: 96.2%; Activity [31]: 15.7% |
